Values after ≈ are worked out from the molar mass of the structure shown. Read-outs that look alike come from different tables or passages of the source.
Experiments:
E. coli ATCC 25922 = experiment: MIC; assay type: cell-based; details: Escherichia coli, ATCC25922; line under drawing, Table 8-1
E. coli ΔtolC (JW5503) = assay type: cell-based
Outline: (§1)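 MICs by CLSI broth microdilution in cation-adjusted Mueller-Hinton broth, performed in biological triplicate. Strains: efflux-deficient E. coli ΔtolC (JW5503, KEIO collection) and K. pneumoniae BAA-2472 (ATCC).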

S. aureus ATCC 29213 = experiment: Antimicrobial susceptibility test (MIC), micro-dilution broth; assay type: cell-based; details: Staphylococcus aureus, ATCC29213
Outline: (§2)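 CLSI micro-dilution broth method in cation-adjusted Mueller-Hinton broth, in biological triplicate; human serum (pooled, filtered) was also used.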

H. sapiens HFF-1 = experiment: In-vitro cytotoxicity; assay type: cell-based
E. coli AR 0085 = experiment: microbe, parasite or virus in culture; assay type: cell-based; details: Escherichia coli, AR0085, read-out: MIC E. coli AR 0085
Outline: (§3)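 CLSI micro-dilution broth method; cation-adjusted MHB; biological triplicate.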

K. pneumoniae AR 0560 = experiment: microbe, parasite or virus in culture; assay type: cell-based; details: Klebsiella pneumoniae, AR0560, read-out: MIC K. pneumoniae AR 0560
Outline: as §3

A. baumannii AR 0033 = experiment: microbe, parasite or virus in culture; assay type: cell-based; details: Acinetobacter baumannii, AR0033, read-out: MIC A. baumannii AR 0033
Outline: as §3

A. baumannii AR 0299 = experiment: microbe, parasite or virus in culture; assay type: cell-based; details: Acinetobacter baumannii, AR0299, read-out: MIC A. baumannii AR 0299
Outline: as §3

K. pneumoniae AR 0113 = experiment: microbe, parasite or virus in culture; assay type: cell-based; details: Klebsiella pneumoniae, AR0113, read-out: MIC K. pneumoniae AR 0113
Outline: as §3

K. pneumoniae AR 0066 = experiment: microbe, parasite or virus in culture; assay type: cell-based; details: Klebsiella pneumoniae, AR0066, read-out: MIC K. pneumoniae AR 0066
Outline: as §3

A. baumannii AR 0273 = experiment: microbe, parasite or virus in culture; assay type: cell-based; details: Acinetobacter baumannii, AR0273, read-out: MIC A. baumannii AR 0273
Outline: as §3

A. baumannii AR 0313 = experiment: microbe, parasite or virus in culture; assay type: cell-based; details: Acinetobacter baumannii, AR0313, read-out: MIC A. baumannii AR 0313
Outline: as §3

E. coli AR 0048 = experiment: microbe, parasite or virus in culture; assay type: cell-based; details: Escherichia coli, AR0048, read-out: MIC E. coli AR 0048
Outline: as §3

in vitro [1] = details: human, plasma
E. coli MG1655 = experiment: Antimicrobial susceptibility test (MIC); assay type: cell-based; details: Escherichia coli, MG1655
Outline: as §2

A. baumannii FabI = A. baumannii FabI (Acinetobacter baumannii, UniProt D0CAD5); experiment: biochemical; details: purified FabI, apparent inhibition constant; read-out: A. baumannii FabI Ki^app
Experimental: Mode of Action. To probe the effects of varying ring systems and amine placement on FabI target engagement, the apparent inhibition constants (Ki^app) for select compounds were determined using purified FabI. The goal of these studies was two-fold, to comparatively assess fabimycin, Debio-1452-NH3, and Debio-1452, and to also assess differential activity against the E. coli and A. baumannii versions of FabI. FabI from E. coli and A. baumannii were recombinantly expressed and purified, and the ability for each compound to inhibit the activity of these enzymes was evaluated using a standard FabI enzyme assay.
In vitro FabI inhibition assay. NADH (Sigma-Aldrich, Cat# N8129) and crotonoyl-CoA (Sigma-Aldrich, Cat# 28007) were both diluted into activity buffer [100 mM potassium glutamate (pH 7.8)], and working solution was dispensed into two columns of round-bottom 96-well plate (330 μL per well). Inhibitors, dissolved in DMSO at 200× final concentration, were added to each well via multichannel pipette (2.48 μL per well). After thorough mixing, this mixture was transferred to UV-transparent plate (UV-STAR half-area 96-well plate, Greiner Bio-One, Cat#675801, 100 μL per well, three technical replicates per inhibitor concentration). Plate was placed in plate-reader (SpectraMax 190, Molecular Devices) under temperature control (25° C.), and temperature was allowed to equilibrate. Fresh aliquot of enzyme from −80° C. was thawed on ice and diluted in activity buffer. Enzyme working solution was added to plate (50 μL per well, 20 nM enzyme final). After shaking for 5 s, reaction progress was monitored by absorbance at 340 nm every 15 s for 90 min. Linear portion of reaction progress curve was fit using plate-reader software (SoftMax Pro 7.0). Percent activity was calculated relative to DMSO-only and no-enzyme controls in each plate. Percent activity curves were fit to Morrison's quadratic using Graphpad Prism 6.0 to obtain apparent Ki.

HERG = HERG (Homo sapiens (Human), UniProt Q12809); experiment: cell-based
H. sapiens A549 = experiment: In-vitro cytotoxicity; assay type: cell-based
K. pneumoniae BAA 2472 = experiment: microbe, parasite or virus in culture; assay type: cell-based; details: Klebsiella pneumoniae, BAA2472, read-out: MIC K. pneumoniae BAA 2472
Outline: as §1

in vitro [2] = details: mouse, plasma

Sequence of A. baumannii FabI (D0CAD5 1-288): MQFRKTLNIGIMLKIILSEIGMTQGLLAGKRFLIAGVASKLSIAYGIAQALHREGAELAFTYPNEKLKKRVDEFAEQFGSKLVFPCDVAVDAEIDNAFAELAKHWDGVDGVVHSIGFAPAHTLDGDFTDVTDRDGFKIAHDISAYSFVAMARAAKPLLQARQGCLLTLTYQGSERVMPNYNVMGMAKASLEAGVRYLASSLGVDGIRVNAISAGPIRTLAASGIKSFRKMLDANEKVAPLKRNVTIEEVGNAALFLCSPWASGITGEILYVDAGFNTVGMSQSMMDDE
Sequence of HERG (Q12809 whole entry): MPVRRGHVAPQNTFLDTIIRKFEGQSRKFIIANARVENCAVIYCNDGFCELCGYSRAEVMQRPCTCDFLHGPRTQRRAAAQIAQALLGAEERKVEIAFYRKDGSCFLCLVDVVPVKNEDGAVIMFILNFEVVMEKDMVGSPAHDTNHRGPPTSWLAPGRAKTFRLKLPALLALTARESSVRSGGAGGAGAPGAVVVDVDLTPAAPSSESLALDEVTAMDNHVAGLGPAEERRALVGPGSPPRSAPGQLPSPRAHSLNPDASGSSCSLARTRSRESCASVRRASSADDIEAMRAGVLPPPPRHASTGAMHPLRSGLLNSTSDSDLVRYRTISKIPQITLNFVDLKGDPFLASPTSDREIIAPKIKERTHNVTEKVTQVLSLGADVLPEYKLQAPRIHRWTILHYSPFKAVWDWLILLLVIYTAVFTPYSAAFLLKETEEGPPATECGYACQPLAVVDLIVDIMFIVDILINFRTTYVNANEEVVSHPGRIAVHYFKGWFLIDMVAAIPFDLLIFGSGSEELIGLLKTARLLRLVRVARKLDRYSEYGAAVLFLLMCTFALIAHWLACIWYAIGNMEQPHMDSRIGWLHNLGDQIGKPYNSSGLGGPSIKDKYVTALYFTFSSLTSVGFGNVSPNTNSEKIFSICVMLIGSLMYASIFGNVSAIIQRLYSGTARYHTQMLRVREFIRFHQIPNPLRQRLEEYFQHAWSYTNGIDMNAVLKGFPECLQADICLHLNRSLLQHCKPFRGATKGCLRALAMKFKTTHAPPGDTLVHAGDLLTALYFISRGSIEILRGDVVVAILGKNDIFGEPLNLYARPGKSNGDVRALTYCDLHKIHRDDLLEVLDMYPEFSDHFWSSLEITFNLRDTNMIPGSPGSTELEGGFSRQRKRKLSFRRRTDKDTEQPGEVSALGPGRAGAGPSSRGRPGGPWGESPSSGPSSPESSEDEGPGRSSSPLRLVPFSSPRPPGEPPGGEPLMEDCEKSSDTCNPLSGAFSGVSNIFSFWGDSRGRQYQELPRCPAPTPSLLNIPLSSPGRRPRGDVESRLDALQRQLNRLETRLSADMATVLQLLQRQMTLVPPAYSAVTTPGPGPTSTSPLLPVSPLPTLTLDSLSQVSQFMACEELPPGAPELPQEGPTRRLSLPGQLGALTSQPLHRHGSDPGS

O=C1CCc2cc(/C=C/C(=O)N3CC4C=C(c5ccccc5)CC4C3)cnc2N1 (stereo not drawn) [reference compound]
MIC (E. coli ATCC 25922): > 32 µg/mL | MIC E. coli ΔtolC mutant (E. coli ΔtolC (JW5503); line under drawing, Table 8-1): MIC E. coli ΔtolC mutant = ≤0.03 ug/mL | MIC (S. aureus ATCC 29213; line under drawing, Table 8-1, read-out: MIC S. aureus ATCC 29213): 0.016 µg/mL (≈ 0.0415 µM)

Cc1c(CN(C)C(=O)/C=C/c2cnc3c(c2)CCC(=O)N3)oc2ccccc12 [Debio-1452, (E)-N-methyl-N-((3-methylbenzofuran-2-yl)methyl)-3-(7-oxo-5,6,7,8-tetrahydro-1,8-naphthyridin-3-yl)acrylamide, reference compound]
inhibition at 30 µM (H. sapiens HFF-1): 18 ± 6% | IC50 (H. sapiens HFF-1; cytotoxicity): 165 ± 42 µM | MIC (E. coli AR 0085): > 32 µg/mL | MIC (K. pneumoniae AR 0560): > 32 µg/mL | MIC (A. baumannii AR 0033): > 32 µg/mL | MIC (A. baumannii AR 0299): > 32 µg/mL | MIC (K. pneumoniae AR 0113): > 32 µg/mL | MIC (K. pneumoniae AR 0066): > 32 µg/mL | MIC (A. baumannii AR 0273): > 32 µg/mL | MIC (A. baumannii AR 0313): > 32 µg/mL | MIC (E. coli AR 0048): > 32 µg/mL | fraction unbound (in vitro [1]): 0.019 | MIC (E. coli MG1655): > 32 µg/mL | MIC E. coli ΔtolC (E. coli ΔtolC (JW5503); efflux deficient E. coli ΔtolC): 0.062 µg/mL (≈ 0.165 µM) | Ki (A. baumannii FabI): 799 ± 229 nM | IC50 (HERG): 5.5 µM | inhibition at 30 µM (H. sapiens A549): 13 ± 6% | IC50 (H. sapiens A549; cytotoxicity): 166 ± 12 µM | MIC (K. pneumoniae BAA 2472): > 32 µg/mL | MIC (S. aureus ATCC 29213; S. aureus ATCC 29213, read-out: MIC S. aureus 29213): 0.008 µg/mL (≈ 0.0213 µM) | fraction unbound (in vitro [2]): 0.006

— patent US20240190872A1, “FABI INHIBITORS FOR GRAM-NEGATIVE PATHOGENS” (THE BOARD OF TRUSTEES OF THE UNIVERSITY OF ILLINOIS, priority 2021, published 2024)
